In data set [1] the test system is mGlu4. Details: method as in PMID 30116027, PMID 34731619, PMID 35643819, PMID 25137254, PMID 11606768. The note with it: Figure 1; cited from earlier work.
Data set [2] deals with hmGlu1. Details: method as in PMID 30116027, PMID 34731619, PMID 35643819, PMID 25137254, PMID 11606768. The following applies: Figure 1; read-out: hmGlu1 PAM EC50; cited from earlier work.
The nature of data set [3]: IV dog PK. It is filed as in vivo. The note with it: male, beagle, plasma, 0.5 mg/kg IV; for C0: iv, 0.5 mg/kg. On the procedure:
(§1) Deeper profiling began with IV dog PK (0.5 mg/kg, n = 3 male beagles). […] Was this a mechanism-based toxicity in dog? Could there be dog-specific pharmacology of mGlu1 activation? Were these AEs derived from the 19d chemotype? Could a mGlu1/mGlu5 heterodimer be responsible for the observed AEs? […] In an attempt to address the chemotype question, we evaluated PAM 4 (VU6004909),[8] an early generation rodent in vivo tool compound, for the first time in dog PK. […] of the study with 19d, PAM 4 produced no AEs in dog. […] Therefore, more molecular pharmacology and PK studies as well as additional chemically distinct mGlu1 PAM chemotypes are required to understand the AEs elicited by an mGlu1 PAM in dogs, an otherwise very promising target for the treatment of schizophrenia.

Data set [4] deals with male beagles. As to the kind of experiment: adverse events in dog PK. In kind it is in vivo. The following applies: 0.5 mg/kg IV. On the procedure:
as §1

For data set [5], the target named is dog mGlu1 (Canis lupus familiaris, UniProt A0A8I3NTE8). As to the kind of experiment: mGlu1 PAM assay, dog receptor. In kind it is cell-based.
Data set [6] in a line: rat IV plasma:brain level (PBL) PK. It is filed as in vivo.
Data set [7] in a line: intrinsic clearance, predicted hepatic clearance. It is filed as in vitro ADME, human. The note with it: in vitro predicted hepatic clearance. As for the experimental part:
(§2) Human or rat hepatic microsomes (0.5 mg/mL) and 1 μM test compound were incubated in 100 mM potassium phosphate pH 7.4 buffer with 3 mM MgCl2 at 37 °C with constant shaking. After a 5 min preincubation, the reaction was initiated by addition of NADPH (1 mM). At selected time intervals (0, 3, 7, 15, 25, and 45 min), aliquots were taken and subsequently placed into a 96-well plate containing cold acetonitrile with internal standard (50 ng/mL carbamazepine). Plates were then centrifuged at 3000 rcf (4 °C) for 10 min, and the supernatant was transferred to a separate 96-well plate and diluted 1:1 with water for LC/MS/MS analysis. The in vitro half-life (T1/2, min, eq 1), intrinsic clearance (CLint, mL/min/kg, eq 2) and subsequent predicted hepatic clearance (CLhep, mL/min/kg, eq 3) was determined employing the following equations: [drawing 2] 1 where k represents the slope from linear regression analysis of the natural log percent remaining of test compound as a function of incubation time [drawing 3] 2
(§3) ^ascale-up factors: of 20 (human) or 45 (rat) [drawing 4] 3 where Qh (hepatic blood flow, mL/min/kg) is 21 (human) or 70 (rat).

Data set [8] deals with T1, human mGlu1 (Homo sapiens, UniProt Q13255).
T1 construct: expressed in transfected cells; pcDNA5/TO)
As to the kind of experiment: mGlu1 calcium mobilization (triple-add) PAM assay. In kind it is cell-based. The note with it: PAM, calcium flux, EC20 glutamate. On the procedure: Tetracycline-inducible human mGlu1 WT-T-REx-293 cells (Wu et al, Science 2014) were cultured at 37 °C in Dulbecco’s Modified Eagle Medium (DMEM) growth medium containing 10% Tet-tested FBS, 2 mM L-glutamine, 20 mM HEPES, 0.1 mM nonessential amino acids, 1 mM sodium pyruvate, antibiotic/antimycotic, 100 μg/mL hygromycin and 5 μg/mL blasticidin in the presence of 5% CO2. […] The mutant stable cell lines were generated in the same manner as the WT as previously described and cultured in the growth medium described above.
To determine the potency of mGlu1 PAMs in calcium assays, Ca flux was measured as previously described in ACS Chem. Bio. 2014, 9, 2334–2346. Briefly, the day before the assay, human mGlu1 WT-T-REx-293 cells were plated in black-walled, clear-bottomed, poly-D-lysine coated 96-well plates at 80,000 cells/100 μL assay medium (DMEM supplemented with 10% dialyzed FBS, 20 mM HEPES, and 1 mM sodium pyruvate) containing 50 ng/mL of tetracycline to induce mGlu1 expression. The next day, media was removed and the cells were incubated with 50 μL of 1.15 μM Fluo-4 AM dye solution prepared in assay buffer (buffer (Hank’s balanced salt solution, 20 mM HEPES, and 2.5 mM probenecid) for 45 min at 37 °C, the dye was removed and replaced with 45 μL of assay buffer. Then, calcium flux was measured using Flexstation II (Molecular Devices, Sunnyvale, CA). Compounds serially diluted at half log concentrations in DMSO were further diluted in assay buffer. The compounds or DMSO vehicle were added to cells and incubated for 2.5 min and an EC20 concentration of glutamate was added and incubated for 1 min. An ECmax concentration of glutamate was also added to cells that were incubated with DMSO vehicle to accurately calculate the EC20 calcium response. Data were normalized by subtracting the basal florescent peak before EC20 agonist addition from the maximal peak elicited by EC20 agonist and PAMs. Using GraphPad Prism 5.0, the concentration response curves were generated and the potencies of the mGlu1 PAMs were determined.

In data set [9] the target is rat mGlu1 (Rattus norvegicus, UniProt P23385). As to the kind of experiment: mGlu1 calcium mobilization PAM assay. In kind it is cell-based. The note with it: PAM, calcium flux. Background: Calcium flux is commonly read through the fluorescence of an indicator in the cells.
A short description of data set [10]: plasma protein binding, equilibrium dialysis. The note with it: fraction unbound. In kind it is in vitro ADME, human. As for the experimental part:
(§4) The protein binding of each compound was determined in plasma via equilibrium dialysis employing RED Plates (ThermoFisher Scientific, Rochester, NY). Plasma was added to the 96 well plate containing test compound and mixed thoroughly for a final concentration of 5 μM. Subsequently, an aliquot of the plasma-compound mixture was transferred to the cis chamber (red) of the RED plate, with an phosphate buffer (25 mM, pH 7.4) in the trans chamber. The RED plate was sealed and incubated for 4 h at 37 °C with shaking. At completion, aliquots from each chamber were diluted 1:1 with either plasma (cis) or buffer (trans) and transferred to a new 96 well plate, at which time ice-cold acetonitrile containing internal standard (50 ng/mL carbamazepine) (2 volumes) was added to extract the matrices. The plate was centrifuged (3000 rcf, 10 min) and supernatants transferred and diluted 1:1 (supernatant: water) into a new 96 well plate, which was then sealed in preparation for LC/MS/MS analysis. Each compound was assayed in triplicate within the same 96-well plate. Fraction unbound was determined using the following equation [drawing 1]
A general note: In equilibrium dialysis free small molecules cross a membrane that holds back macromolecules.

Data set [11] in a line: plasma protein binding, equilibrium dialysis. In kind it is in vitro ADME, rat. The following applies: fraction unbound. As for the experimental part: as §4
Data set [12] in a line: intrinsic clearance, predicted hepatic clearance. In kind it is in vitro ADME, rat. The note with it: in vitro predicted hepatic clearance. On the procedure: as §2, §3
Data set [13] is described as follows: brain homogenate binding. It is filed as in vitro ADME, rat. The following applies: fraction unbound.
Data set [14] concerns Sprague–Dawley rats. As to the kind of experiment: catalepsy (latency to withdraw). In kind it is in vivo. The following applies: rat, positive control, 1.5 mg/kg i.p. As for the experimental part:
In order to enable our target validation work, we first profiled PAM 19d in a rat locomotor battery to ensure that pharmacodynamic efficacy was not mistaken for gross effects on locomotion.[20] […] PK was performed in parallel to establish a PK/PD relationship.[24]
Control rats were injected with 1.5 mg/kg of haloperidol i.p. (dissolved in 8% lactic acid and taken to volume of 50 mL with sterile water) and were returned to their home cage for 90 min. Cataleptic behavior is determined by placing the forelimbs on a bar raised 6 cm above the table and recording the amount of time it takes for the rat to withdraw the forelimbs with a cutoff of 60 s. Data are expressed as mean latency to withdraw + SEM or percent inhibition of catalepsy + SEM.

Like-named read-outs stand apart in the source and are kept apart here.

T1 sequence (Q13255 19-1194): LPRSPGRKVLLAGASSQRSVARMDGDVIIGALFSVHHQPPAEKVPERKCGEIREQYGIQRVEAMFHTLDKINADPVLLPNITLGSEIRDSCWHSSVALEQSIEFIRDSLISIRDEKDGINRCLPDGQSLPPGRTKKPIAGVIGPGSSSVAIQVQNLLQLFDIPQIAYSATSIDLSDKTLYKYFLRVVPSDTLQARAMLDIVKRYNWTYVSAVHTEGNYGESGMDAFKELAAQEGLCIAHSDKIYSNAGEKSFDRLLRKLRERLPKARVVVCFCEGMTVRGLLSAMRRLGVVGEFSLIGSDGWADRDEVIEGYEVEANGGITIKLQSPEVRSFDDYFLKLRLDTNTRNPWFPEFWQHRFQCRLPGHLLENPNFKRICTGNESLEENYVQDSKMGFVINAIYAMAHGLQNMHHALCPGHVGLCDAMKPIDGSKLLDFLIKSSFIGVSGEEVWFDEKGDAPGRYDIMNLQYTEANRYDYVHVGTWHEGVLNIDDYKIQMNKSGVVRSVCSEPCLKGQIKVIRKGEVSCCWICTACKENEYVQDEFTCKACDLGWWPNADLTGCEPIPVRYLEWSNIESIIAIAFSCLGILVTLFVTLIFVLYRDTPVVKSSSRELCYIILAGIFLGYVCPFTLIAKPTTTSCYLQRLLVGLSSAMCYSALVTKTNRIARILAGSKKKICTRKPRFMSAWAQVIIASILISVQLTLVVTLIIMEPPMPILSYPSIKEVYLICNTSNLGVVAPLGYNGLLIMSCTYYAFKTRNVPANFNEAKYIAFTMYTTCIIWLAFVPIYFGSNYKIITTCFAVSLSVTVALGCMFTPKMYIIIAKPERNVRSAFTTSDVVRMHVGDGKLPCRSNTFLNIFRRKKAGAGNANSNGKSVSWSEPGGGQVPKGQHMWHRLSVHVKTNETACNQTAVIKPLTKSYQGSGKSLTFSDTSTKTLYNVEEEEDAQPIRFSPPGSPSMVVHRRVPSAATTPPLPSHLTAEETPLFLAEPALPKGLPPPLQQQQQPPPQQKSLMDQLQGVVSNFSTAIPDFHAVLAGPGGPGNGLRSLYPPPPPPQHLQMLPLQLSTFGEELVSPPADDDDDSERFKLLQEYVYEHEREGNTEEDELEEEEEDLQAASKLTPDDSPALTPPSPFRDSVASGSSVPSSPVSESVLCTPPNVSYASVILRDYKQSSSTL
Sequence of rat mGlu1 (P23385 19-1199): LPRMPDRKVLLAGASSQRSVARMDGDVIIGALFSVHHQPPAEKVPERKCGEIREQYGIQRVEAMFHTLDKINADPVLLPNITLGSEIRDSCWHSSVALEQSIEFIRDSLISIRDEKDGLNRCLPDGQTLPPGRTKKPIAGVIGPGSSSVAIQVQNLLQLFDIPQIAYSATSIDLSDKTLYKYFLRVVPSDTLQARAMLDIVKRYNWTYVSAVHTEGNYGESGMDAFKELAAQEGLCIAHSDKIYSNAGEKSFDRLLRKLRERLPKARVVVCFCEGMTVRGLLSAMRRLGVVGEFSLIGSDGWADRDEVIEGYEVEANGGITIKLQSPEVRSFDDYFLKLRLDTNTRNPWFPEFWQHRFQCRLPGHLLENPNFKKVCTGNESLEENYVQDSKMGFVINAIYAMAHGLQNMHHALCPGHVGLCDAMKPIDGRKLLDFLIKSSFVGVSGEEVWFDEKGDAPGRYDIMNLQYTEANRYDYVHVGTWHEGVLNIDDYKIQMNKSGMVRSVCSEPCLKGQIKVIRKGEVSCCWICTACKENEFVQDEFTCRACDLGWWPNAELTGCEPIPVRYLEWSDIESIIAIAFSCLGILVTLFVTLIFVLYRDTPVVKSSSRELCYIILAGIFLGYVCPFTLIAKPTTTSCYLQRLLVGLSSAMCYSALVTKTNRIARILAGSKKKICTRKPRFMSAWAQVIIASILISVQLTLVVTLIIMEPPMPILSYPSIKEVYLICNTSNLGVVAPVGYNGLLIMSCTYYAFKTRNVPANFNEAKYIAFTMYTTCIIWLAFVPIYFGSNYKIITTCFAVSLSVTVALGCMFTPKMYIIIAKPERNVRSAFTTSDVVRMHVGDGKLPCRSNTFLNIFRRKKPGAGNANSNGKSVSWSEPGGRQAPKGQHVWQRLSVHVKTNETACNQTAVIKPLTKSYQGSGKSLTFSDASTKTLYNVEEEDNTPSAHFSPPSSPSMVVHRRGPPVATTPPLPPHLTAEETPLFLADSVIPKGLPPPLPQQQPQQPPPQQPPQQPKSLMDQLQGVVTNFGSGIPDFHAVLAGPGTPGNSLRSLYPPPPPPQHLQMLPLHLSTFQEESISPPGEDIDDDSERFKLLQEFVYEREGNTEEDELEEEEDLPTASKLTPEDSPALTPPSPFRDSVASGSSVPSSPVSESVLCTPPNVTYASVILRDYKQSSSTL
Sequence of dog mGlu1 (A0A8I3NTE8 30-1195): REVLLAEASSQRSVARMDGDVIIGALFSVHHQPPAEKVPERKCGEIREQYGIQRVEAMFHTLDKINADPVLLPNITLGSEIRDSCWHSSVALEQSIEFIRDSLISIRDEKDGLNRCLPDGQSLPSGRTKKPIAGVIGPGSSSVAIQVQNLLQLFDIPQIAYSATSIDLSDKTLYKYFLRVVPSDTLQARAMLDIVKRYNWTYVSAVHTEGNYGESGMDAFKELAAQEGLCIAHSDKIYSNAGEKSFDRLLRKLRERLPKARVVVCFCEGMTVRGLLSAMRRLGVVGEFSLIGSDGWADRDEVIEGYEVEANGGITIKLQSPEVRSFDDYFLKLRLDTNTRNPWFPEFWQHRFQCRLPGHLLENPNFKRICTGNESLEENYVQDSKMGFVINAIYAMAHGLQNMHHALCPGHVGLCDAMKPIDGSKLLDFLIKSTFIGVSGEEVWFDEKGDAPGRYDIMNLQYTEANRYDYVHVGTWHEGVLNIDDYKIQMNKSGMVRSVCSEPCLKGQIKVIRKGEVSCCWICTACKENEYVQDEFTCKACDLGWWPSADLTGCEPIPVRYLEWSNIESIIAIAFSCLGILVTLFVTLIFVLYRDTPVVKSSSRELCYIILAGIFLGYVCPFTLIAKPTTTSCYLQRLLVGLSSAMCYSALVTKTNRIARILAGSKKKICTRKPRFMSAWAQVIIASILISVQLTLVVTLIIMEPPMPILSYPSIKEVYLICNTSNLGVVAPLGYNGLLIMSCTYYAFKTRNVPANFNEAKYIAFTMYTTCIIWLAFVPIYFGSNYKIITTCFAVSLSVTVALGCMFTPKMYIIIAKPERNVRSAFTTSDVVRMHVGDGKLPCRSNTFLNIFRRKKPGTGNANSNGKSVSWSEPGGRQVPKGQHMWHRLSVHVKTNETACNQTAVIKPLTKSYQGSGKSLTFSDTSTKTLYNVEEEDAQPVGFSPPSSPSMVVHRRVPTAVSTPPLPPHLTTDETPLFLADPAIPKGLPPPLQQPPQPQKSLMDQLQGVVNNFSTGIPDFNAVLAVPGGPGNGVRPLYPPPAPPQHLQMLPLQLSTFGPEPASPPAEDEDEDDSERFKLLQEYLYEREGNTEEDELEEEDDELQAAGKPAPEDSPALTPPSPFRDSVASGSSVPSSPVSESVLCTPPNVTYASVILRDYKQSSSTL

By EC50 is commonly meant the midpoint of the concentration-response curve. With `O=C(Nc1ccc(N2C(=O)c3cccc(Cl)c3C2=O)c(Cl)c1)c1ncccc1Cl` [Compound 2], the “selectivity vs. mGlu4” value in data set [1] was ~ 30 fold. For the same compound, the EC50 in data set [2] is 0.39 µM.

Turning to `Cc1ccoc1C(=O)Nc1ccc(N2C(=O)c3cccc(F)c3C2=O)c(Cl)c1` [Compound 3], in data set [1], the “selectivity vs. mGlu4” value is reported as ~ 35 fold. The EC50 in data set [2] was 0.032 µM.

As usually defined, the half-life is the time needed for the level to fall by half in the phase considered. Regarding `Cc1ccc2c(c1)C(=O)N(c1ccc(NC(=O)c3occc3C)c(F)c1)C2=O` [Compound 4, reference compound], the “selectivity vs. mGlu4” value in data set [1] was ~ 790 fold. For the same compound, the half-life in data set [3] was 16.8 h. The clearance in data set [3] (read-out: CLp) was 14 mL/min/kg. Further, the Vd in [3] (read-out: Vss) stood at 12 L/kg. For the same compound, the C0 in data set [3] (read-out: C0 exposure, total) was determined as 1100 nM; in [3] (read-out: C0 exposure, unbound) it was 36.4 nM. Further, in data set [4], the “adverse events (AEs) in dog” value is reported as “no AEs”. Besides, the EC50 in data set [5] came to 0.4 µM.

Consider `Cc1ccoc1C(=O)Nc1ccc(N2Cc3c(Cl)cccc3C2=O)c(Cl)c1` [Compound 5], for which the “selectivity vs. mGlu4” value in data set [1] is listed as ~ 50 fold. In addition, the EC50 in [2] is 0.211 µM.

What is called Kp is the ratio of the level in a tissue or fluid to that in plasma or blood. Broadly, the MRT is a mean duration of stay, worked out from the concentration-time curve. Turning to `O=C(NCc1cnn2ccccc12)c1cc(-c2ccco2)ccc1Cl` [Compound 9k, 2-Chloro-5-(furan-2-yl)-N-(pyrazolo[1,5-a]pyridin-3-ylmethyl)benzamide], the Kp at 15 min in data set [6] (Sprague-Dawley, 0.25 mg/kg/compound, rat IV PBL, brain:plasma) stood at 0.27. Also, in data set [6] (Sprague-Dawley, plasma, intravenous, rat PK PBL experiment, read-out: CLp), the clearance is 67.2 mL/min/kg. In data set [6] (rat PK PBL experiment), this compound had an MRT of 0.355 h and a t1/2 of 0.397 h. The “CLhep, human” value in data set [7] is on record as 19.8 mL/min/kg. Further, in data set [8], the EC50 is 0.051 µM and the “human mGlu1 Glumax” value is listed as 53%. For the same compound, in data set [9], the EC50 turned out to be 0.109 µM and the “rat mGlu1 Glumax” value was 92%. In data set [10], the human fuplasma is 0.036. Also, in [11], the rat fuplasma came to 0.022. Besides, the “CLhep, rat” value in [12] is on record as 63.7 mL/min/kg. The rat fubrain in [13] is given as 0.021.

Turning to `Cn1nc(-c2ccccc2F)cc1CNC(=O)c1cc(-c2ccco2)ccc1Cl` [Compound 19b, 2-Chloro-N-((3-(2-fluorophenyl)-1-methyl-1H-pyrazol-5-yl)methyl)-5-(furan-2-yl)benzamide], the “CLhep, human” value in data set [7] is reported as 18.6 mL/min/kg. Further, in data set [8], the EC50 stood at 0.195 µM and the “human mGlu1 Glumax” value came out at 85%. Further, in [9], the EC50 came out at 0.133 µM and the “rat mGlu1 Glumax” value is 116%. Also, the human fuplasma in data set [10] is on record as 0.002. In data set [11], this compound had a rat fuplasma of 0.002. Further, in data set [12], the “CLhep, rat” value is 56.4 mL/min/kg. This compound displayed a rat fubrain in data set [13] of 0.003.

Regarding `Cn1nc(-c2cccnc2)cc1CNC(=O)c1cc(-c2ccco2)ccc1Cl` [Compound 19c, 2-Chloro-5-(furan-2-yl)-N-((1-methyl-3-(pyridin-3-yl)-1H-pyrazol-5-yl)methyl)benzamide], in data set [7], the “CLhep, human” value is recorded as 18.8 mL/min/kg. Moreover, in data set [8], the EC50 was found to be 0.074 µM and the “human mGlu1 Glumax” value stood at 60%. Further, in data set [9], the EC50 turned out to be 0.124 µM and the “rat mGlu1 Glumax” value is 116%. The human fuplasma in data set [10] is 0.023. In data set [11], this compound returned a rat fuplasma of 0.015. Also, the “CLhep, rat” value in [12] is recorded as 51.7 mL/min/kg. Further, in data set [13], the rat fubrain was found to be 0.021.

Consider `O=C(CCCN1CCC(O)(c2ccc(Cl)cc2)CC1)c1ccc(F)cc1` [haloperidol, reference compound], for which the catalepsy result in data set [14] is listed as “induced profound catalepsy”.

The values are drawn from paper PMC11684029, “Discovery of VU6024578/BI02982816: An mGlu1 Positive Allosteric Modulator with Efficacy in Preclinical Antipsychotic and Cognition Models” (Journal of Medicinal Chemistry, 2024).
